Columns and labels:
[1] = set-up: method as in PMID 21859884; details: rats; cited from earlier work
U87MG xenograft tumors = assay: U87MG glioblastoma xenograft tumor model; details: galunisertib 25 mg/kg BID oral; lomustine (CCNU) 30 mg/kg single intraperitoneal dose; alone or combined
Experimental: Five million U87MG glioblastoma cells, obtained from ATCC (Manassas, VA), were injected subcutaneously in the flank of 8- to 9-week old, female, athymic nude mice (Harlan, Indianapolis, IN) in a 1:1 mixture of 1x PBS and matrigel (Becton Dickinson, Bedford, MA). Mice were monitored daily for palpable tumors. […] The tumor volumes were recorded at regular intervals following treatment.

Row | SMILES | cardiac valve lesions [1] | anti-tumor effect (tumor volume) (U87MG xenograft tumors)
1 | c1ccc(-c2nc3c(c(-n4ccc5cnccc54)n2)CCC3)nc1 [AZ12601011] | induced cardiac valve lesions | 
2 | O=NN(CCCl)C(=O)NC1CCCCC1 [lomustine, reference compound] |  | antitumor activity
